In ChEMBL document CHEMBL1201862, “PubChem BioAssay data set” (2004):
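The compound was tested at five concentrations on cells cultured in 96-well plates, with a 48-hour exposure period. GI50 marks 50% less growth.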 Calls of active or inactive are those of the source. Cut-off read from the data, not from the text of the source: active = GI50 up to about 1.1 µM and inactive = higher.

Key:
Test in all cases: inhibition of tumour cell growth, NCI panel, 48 h
[1] = test system: SNB-19
[2] = test system: U-251
[3] = test system: HL-60
[4] = test system: NCI-H226
[5] = test system: M14
[6] = test system: SNB-78
[7] = test system: RPMI-8226
[8] = test system: OVCAR-3
[9] = test system: HCC 2998
[10] = test system: HOP-62
[11] = test system: NCI-H460
[12] = test system: NCI-H522
[13] = test system: SNB-75
[14] = test system: IGROV-1
[15] = test system: LOX IMVI
[16] = test system: UACC-257
[17] = test system: SF-539
[18] = test system: K562
[19] = test system: SF-268
[20] = test system: SK-MEL-2
[21] = test system: CCRF-CEM
[22] = test system: TK-10
[23] = test system: SK-MEL-5
[24] = test system: UACC-62
[25] = test system: M19-MEL
[26] = test system: HCT-15
[27] = test system: COLO 205
[28] = test system: CAKI-1
[29] = test system: RXF 393
[30] = test system: DMS-273
[31] = test system: Malme-3M
[32] = test system: KM12
[33] = test system: A549
[34] = test system: OVCAR-5
[35] = test system: HOP-18
[36] = test system: LXFL 529
[37] = test system: DLD-1
[38] = test system: SK-MEL-28
[39] = test system: OVCAR-8
[40] = test system: A498
[41] = test system: 786-0
[42] = test system: KM-20L2
[43] = test system: SK-OV-3
[44] = test system: NCI-H23
[45] = test system: SW-620
[46] = test system: HT-29
[47] = test system: HCT-116
[48] = test system: SF-295
[49] = test system: UO-31
[50] = test system: MOLT-4
[51] = test system: DMS-114
[52] = test system: OVCAR-4
[53] = test system: EKVX
[54] = test system: SN12C
[55] = test system: SR
[56] = test system: XF498
[57] = test system: HOP-92

With CCO/C([O-])=C(\C(=O)c1ccccc1)[n+]1c(C)n(C)c2ccccc21 the GI50 [1] was > 100 µM (inactive), the GI50 [2] was > 100 µM (inactive) and the GI50 [3] was > 100 µM (inactive). The GI50 [4] was > 100 µM (inactive), the GI50 [5] was > 100 µM (inactive) and the GI50 [6] was > 100 µM (inactive). The GI50 [7] was > 100 µM (inactive), the GI50 [8] was > 100 µM (inactive) and the GI50 [9] was > 100 µM (inactive). The GI50 [10] was > 100 µM (inactive), the GI50 [11] was > 100 µM (inactive) and the GI50 [12] was > 100 µM (inactive). The GI50 [13] was > 100 µM (inactive), the GI50 [14] was > 100 µM (inactive) and the GI50 [15] was > 100 µM (inactive). The GI50 [16] was > 100 µM (inactive), the GI50 [17] was > 100 µM (inactive) and the GI50 [18] was > 100 µM (inactive). For the same molecule, the GI50 [19] was > 100 µM (inactive), the GI50 [20] was > 100 µM (inactive) and the GI50 [21] was > 100 µM (inactive). For the same molecule, the GI50 [22] was > 100 µM (inactive), the GI50 [23] was > 100 µM (inactive) and the GI50 [24] was > 100 µM (inactive). The GI50 [25] was > 100 µM (inactive), the GI50 [26] was > 100 µM and the GI50 [27] was > 100 µM (inactive). For the same molecule, the GI50 [28] was > 100 µM (inactive), the GI50 [29] was > 100 µM (inactive) and the GI50 [30] was > 100 µM (inactive). The GI50 [31] was > 100 µM (inactive), the GI50 [32] was > 100 µM (inactive) and the GI50 [33] was > 100 µM (inactive). For the same molecule, the GI50 [34] was > 100 µM (inactive), the GI50 [35] was > 100 µM (inactive) and the GI50 [36] was > 100 µM (inactive). For the same molecule, the GI50 [37] was > 100 µM (inactive), the GI50 [38] was > 100 µM (inactive) and the GI50 [39] was > 100 µM (inactive). For the same molecule, the GI50 [40] was > 100 µM (inactive), the GI50 [41] was > 100 µM (inactive) and the GI50 [42] was > 100 µM (inactive). For the same molecule, the GI50 [43] was > 100 µM (inactive), the GI50 [44] was > 100 µM (inactive) and the GI50 [45] was > 100 µM (inactive). The GI50 [46] was > 100 µM (inactive), the GI50 [47] was > 100 µM (inactive) and the GI50 [48] was > 100 µM (inactive). The GI50 [49] was > 100 µM (inactive), the GI50 [50] was > 100 µM (inactive) and the GI50 [51] was > 100 µM (inactive). The GI50 [52] was > 100 µM (inactive) and the GI50 [53] was > 100 µM (inactive).

For CC1=N/C(=C\c2ccc(C)cc2)C(=O)O1, the GI50 [1] was > 100 µM (inactive), the GI50 [2] was > 100 µM (inactive) and the GI50 [54] was > 100 µM (inactive). For the same molecule, the GI50 [5] was > 100 µM (inactive), the GI50 [6] was > 100 µM (inactive) and the GI50 [8] was > 100 µM (inactive). For the same molecule, the GI50 [9] was > 100 µM (inactive), the GI50 [55] was > 100 µM (inactive) and the GI50 [56] was > 100 µM (inactive). The GI50 [12] was > 100 µM (inactive), the GI50 [14] was > 100 µM (inactive) and the GI50 [18] was > 100 µM (inactive). The GI50 [57] was > 100 µM (inactive), the GI50 [20] was > 100 µM (inactive) and the GI50 [21] was > 100 µM (inactive). For the same molecule, the GI50 [22] was > 100 µM (inactive), the GI50 [23] was > 100 µM (inactive) and the GI50 [24] was > 100 µM (inactive). The GI50 [25] was > 100 µM (inactive), the GI50 [26] was > 100 µM and the GI50 [27] was > 100 µM (inactive). The GI50 [28] was > 100 µM (inactive), the GI50 [29] was > 100 µM (inactive) and the GI50 [31] was > 100 µM (inactive). The GI50 [32] was > 100 µM (inactive), the GI50 [34] was > 100 µM (inactive) and the GI50 [36] was > 100 µM (inactive). For the same molecule, the GI50 [37] was > 100 µM (inactive), the GI50 [38] was > 100 µM (inactive) and the GI50 [39] was > 100 µM (inactive). For the same molecule, the GI50 [42] was > 100 µM (inactive), the GI50 [43] was > 100 µM (inactive) and the GI50 [44] was > 100 µM (inactive). For the same molecule, the GI50 [45] was > 100 µM (inactive), the GI50 [46] was > 100 µM (inactive) and the GI50 [48] was > 100 µM (inactive). The GI50 [49] was > 100 µM (inactive), the GI50 [50] was > 100 µM (inactive) and the GI50 [52] was > 100 µM (inactive).
